Laboratory results from the supplement of paper PMC10307832.

Legend:
Assay in all cases: relative viability (nuclei count vs DMSO), 5 days (fraction); higher = more cells survive
[1] = compound: COc1cc(-c2nn([C@H]3CC[C@H](N4CCN(C(C)=O)CC4)CC3)c3ncnc(N)c23)ccc1NC(=O)c1cc2ccccc2n1C + O=C(c1cc(Cc2n[nH]c(=O)c3ccccc23)ccc1F)N1CCN(C(=O)C2CC2)CC1 [Olaparib] (partner 8 µM)
Procedure, shortened: (§1)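 Relative viability equals treated-well nuclei counts divided by vehicle-well nuclei counts. Counts came from 4× images of lung cancer cell lines grown in 1536-well plates for 5 days after pin-tool dosing on the day after seeding. Dosing used one drug alone or a fixed anchor-drug dose plus five library-drug doses (not always all listed) in √10 steps, and values are medians of duplicate plates.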

[2] = compound: COc1cc(-c2nn([C@H]3CC[C@H](N4CCN(C(C)=O)CC4)CC3)c3ncnc(N)c23)ccc1NC(=O)c1cc2ccccc2n1C + COc1cccc2cc(-c3nc([C@H]4CC[C@H](C(=O)O)CC4)n4ncnc(N)c34)[nH]c12 [OSI-027] (partner 0.5 µM)
Procedure, shortened: as §1

[3] = compound: COc1cc(-c2nn([C@H]3CC[C@H](N4CCN(C(C)=O)CC4)CC3)c3ncnc(N)c23)ccc1NC(=O)c1cc2ccccc2n1C + CS(=O)(=O)N1CCN(Cc2cc3nc(-c4cccc5[nH]ncc45)nc(N4CCOCC4)c3s2)CC1 [Pictilisib] (partner 1 µM)
Procedure, shortened: as §1

[4] = compound: CO[C@@H]1[C@H](N(C)C(=O)c2ccccc2)C[C@H]2O[C@]1(C)n1c3ccccc3c3c4c(c5c6ccccc6n2c5c31)C(=O)NC4 [Midostaurin] + COc1cc2c(Oc3ccc(NC(=O)C4(C(=O)Nc5ccc(F)cc5)CC4)cc3F)ccnc2cc1OCCCN1CCOCC1 [Foretinib] (partner 0.25 µM)
Procedure, shortened: as §1

[5] = compound: COc1cc(-c2nn([C@H]3CC[C@H](N4CCN(C(C)=O)CC4)CC3)c3ncnc(N)c23)ccc1NC(=O)c1cc2ccccc2n1C + CC(=O)c1c(C)c2cnc(Nc3ccc(N4CCNCC4)cn3)nc2n(C2CCCC2)c1=O [Palbociclib] (partner 0.5 µM)
Procedure, shortened: as §1

Row | Cell Line | relative viability ([1]; first compound 0.0128 µM) | relative viability ([1]; first compound 0.04048 µM) | relative viability ([1]; first compound 0.128 µM) | relative viability ([1]; first compound 1.28 µM) | relative viability ([2]; first compound 0.0128 µM) | relative viability ([2]; first compound 0.04048 µM) | relative viability ([2]; first compound 0.128 µM) | relative viability ([2]; first compound 1.28 µM) | relative viability ([3]; first compound 0.0128 µM) | relative viability ([3]; first compound 0.04048 µM) | relative viability ([3]; first compound 0.128 µM) | relative viability ([3]; first compound 1.28 µM) | relative viability ([4]; first compound 0.01 µM) | relative viability ([4]; first compound 0.03162 µM) | relative viability ([4]; first compound 0.1 µM) | relative viability ([4]; first compound 0.3162 µM) | relative viability ([5]; first compound 0.0128 µM) | relative viability ([5]; first compound 0.04048 µM) | relative viability ([5]; first compound 0.128 µM) | relative viability ([5]; first compound 1.28 µM)
1 | NCI-H2023 | 0.519 | 0.505 | 0.414 | 0.449 | 0.409 | 0.4 | 0.423 | 0.28 | 0.277 | 0.188 | 0.212 | 0.22 | 0.856 | 0.984 | 0.686 | 0.631 | 0.436 | 0.358 | 0.318 | 0.293
2 | NCI-H2085 | 0.817 | 0.891 | 0.804 | 0.653 | 0.716 | 0.593 | 0.774 | 0.519 | 0.532 | 0.484 | 0.381 | 0.458 | 1.02 | 0.845 | 0.863 | 0.555 | 0.491 | 0.48 | 0.455 | 0.441
3 | NCI-H2087 | 0.644 |  | 0.616 | 0.722 | 0.692 |  | 0.611 | 0.648 | 1.06 | 0.399 | 0.842 | 0.753 | 1.15 | 0.942 | 1.21 | 0.775 | 0.244 |  | 0.237 | 0.222
4 | NCI-H2126 | 0.952 | 0.961 | 0.656 | 0.74 | 0.686 | 0.661 | 0.646 | 0.547 | 0.567 | 0.434 | 0.48 | 0.438 | 1.19 | 1.14 | 1.04 | 1.15 | 0.35 | 0.372 | 0.344 | 0.329
5 | NCI-H2170 | 0.72 | 0.615 | 0.595 | 0.541 | 0.81 | 0.468 | 0.701 | 0.687 | 0.297 | 0.353 | 0.334 | 0.248 | 1.05 | 0.951 | 0.477 | 0.735 | 0.445 | 0.396 | 0.383 | 0.327
6 | NCI-H2228 | 0.711 | 0.948 | 0.567 | 0.459 | 0.706 | 0.637 | 0.573 | 0.45 | 0.408 | 0.275 | 0.337 | 0.375 | 0.922 | 0.85 | 1.08 | 0.905 | 0.761 | 0.672 | 0.772 | 0.522
7 | NCI-H2347 | 0.561 | 0.597 | 0.56 | 0.505 | 0.406 |  | 0.434 | 0.418 | 0.754 | 0.579 | 0.772 | 0.414 | 1.2 | 1.13 | 0.841 | 1.5 | 0.461 | 0.43 | 0.392 | 0.416
8 | NCI-H2405 | 0.908 | 0.719 | 0.756 | 0.453 | 0.679 | 0.465 | 0.633 | 0.324 | 0.422 | 0.26 | 0.303 | 0.258 | 1.05 | 0.985 | 1.01 | 0.96 | 0.551 | 0.396 | 0.486 | 0.269
